Measurements taken from US4507320A.
Like-named read-outs stand apart in the source and are kept apart here.

How the values were obtained:
[1] = target: T1, presynaptic dopaminergic (DA2) receptor (Oryctolagus cuniculus, UniProt G1T1Q0)
Protocol: (§1) The procedure measures the ability of the test compound to inhibit the constrictor response of isolated perfused rabbit ear artery caused by field stimulation of its adrenergic nerve terminals. Activity in this test is, then, compared with undesired alpha1 -agonist activity which is determined in the superfused rabbit ear artery segment.

alpha1 = test: alpha1-agonist activity in superfused rabbit ear artery segment; details: read-out: EC50-α1, acid addition salt form
Protocol: as §1

[2] = system: presynaptic dopaminergic (DA2) receptor; details: for vasoconstriction observed during the tests (alpha1-mediated): rabbit ear artery, Compound B at 300 nM in the effector response test
Protocol: as §1

[3] = target: T1, presynaptic dopaminergic (DA2) receptor; test: stimulation-evoked 3H-norepinephrine release from prelabelled rabbit ear artery (DA2)
alpha2 = test: alpha2-agonist activity in isolated guinea pig atrial tissue
[4] = system: adenylate cyclase in the caudate nucleus; details: compared with dopamine; cited from earlier work

T1 sequence (G1T1Q0 1-443): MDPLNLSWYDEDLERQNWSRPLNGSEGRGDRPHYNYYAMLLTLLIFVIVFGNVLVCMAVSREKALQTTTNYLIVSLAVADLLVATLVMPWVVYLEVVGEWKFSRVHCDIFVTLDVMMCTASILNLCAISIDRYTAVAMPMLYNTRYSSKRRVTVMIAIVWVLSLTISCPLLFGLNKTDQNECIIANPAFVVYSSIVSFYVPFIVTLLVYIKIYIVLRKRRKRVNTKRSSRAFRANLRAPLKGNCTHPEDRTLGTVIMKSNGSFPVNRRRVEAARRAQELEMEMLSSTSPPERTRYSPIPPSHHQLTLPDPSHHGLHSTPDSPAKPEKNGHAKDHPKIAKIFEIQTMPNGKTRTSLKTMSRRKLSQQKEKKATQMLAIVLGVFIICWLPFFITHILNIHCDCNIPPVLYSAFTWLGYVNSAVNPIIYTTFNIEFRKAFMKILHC

| SMILES | EC50 [1] [nM] | EC50 (alpha1) [nM] | vasoconstriction observed during the tests (alpha1-mediated) [2] | EC50 [3] [nM] | alpha2-agonist activity (alpha2) | selectivity for peripheral DA2 receptor sites over alpha1 ([2]; from DA2 EC50 vs alpha1 EC50) | agonist activity for adenylate cyclase [4] |
| --- | --- | --- | --- | --- | --- | --- | --- |
| CC(C)NCCc1ccc(O)c(NS(C)(=O)=O)c1 [D] | > 1000 | 2000 | – | – | – | – | – |
| CS(=O)(=O)Nc1cc(CCN)ccc1O [Compound B] | > 300 | 355 | vasoconstriction was observed | 3000 | significant α2 -activity | – | – |
| CNCCc1ccc(O)c(NS(C)(=O)=O)c1 [Compound C] | > 30 | 25 | demonstrates vasoconstriction as a result of alpha1 -agonist activity | 300 | significant α2 -activity | – | – |
| CCCN(CCC)CCc1ccc(O)c(NS(C)(=O)=O)c1 [Compound A] | 2 | 760 | No alpha1 -mediated vasoconstriction was observed | 10 | no alpha2 -agonist activity | high selectivity for the desired peripheral DA2 receptor sites | – |
| CS(=O)(=O)Nc1cc(CCN)ccc1O [3-methylsulfonamido analogue of dopamine] | – | – | – | – | – | – | weaker than was dopamine itself |
| CCCN(CCC)CCc1ccc(O)c(NS(=O)(=O)C(F)(F)F)c1 [E] | > 1000 | – | – | – | – | – | – |
| CS(=O)(=O)Nc1cccc(CCN)c1 [G] | > 1000 | – | – | – | – | – | – |
| CCCN(CCC)CCc1cccc(NS(C)(=O)=O)c1 [F] | 400 | – | – | – | – | – | – |
